Source: US8846330B2, “Methods and kits for the diagnosis of RyR1-related diseases” (The Henry M. Jackson Foundation for the Advancement of …, priority 2008, dated 2014)
“And” between values parts separate entries of the source, which are not always exact repeats. Equal values may be shown once.

System: lymphocyte cells
Test: 4CmC-induced adenosine/inosine in human peripheral blood lymphocytes, HPLC (Example 1)
Type: cell-based
Settings: for 4CmC response (adenosine plus inosine) in MHS group relative to MHN or normal groups: EHNA 0.1 mM
Experimental: FIG. 2 is a dose-response curve for 4-chloro-m-cresol (4CmC)-induced intracellular adenosine plus inosine in lymphocyte cells from malignant hyperthermia susceptible (MHS, n=11), not-susceptible (MHN, n=9), and normal (n=7) subjects. Lymphocyte cells were treated with 4CmC in the presence of an inhibitor of adenosine deaminase (EHNA, 0.1 mM). After purification, aliquot was analyzed for adenosine and inosine content using HPLC. Adenosine plus inosine values in the absence of 4CmC are plotted against X=0.02 mM to allow logarithmic display of the entire dose response curve. Adenosine plus inosine levels were normalized to reflect per 1 million cells. 4CmC responses at 1, 2, and 5 mM on MHS groups are about 4, 4, and 6 fold higher than the corresponding values in MI-1N or normal groups with values of 6×10^−5, 8×10^−5, and […], respectively. There were no overlaps between the MHS group and the MHN or normal groups.
Lymphocyte cells from MHS (n=11), MHN (n=9) and normal (n=7) subjects were suspended in normal HBSS plus 0.1% BSA and treated with adenosine deaminase inhibitor (EHNA, 0.1 mM). After 10 minutes of incubation at 37° C., cells were treated with HBSS, with and without the RyR1 agonist 4CmC (5 mM) and incubated at 37° C. for an additional 45 minutes. After termination and purification of the samples, aliquots (50 μl) were assayed in duplicate for adenosine and inosine content using HPLC. Concentrations are normalized to per 1 million cells. The sum of the adenosine plus inosine level is about 6-fold higher than corresponding values in normal and MHN cells.
Pilot studies were conducted using blood samples from human subjects in the following groups: Group 1: MHS subjects with positive CHCT and/or having a known MH associated mutation (n=11); Group 2: non-MH susceptible with negative CHCT results (MHN) (n=9), and Group 3: normal subjects who had not undergone CHCT and had no family history of MH (n=7).
Briefly, venous blood samples (20 ml) were drawn from patients using heparinized blood collection tubes. Peripheral blood lymphocyte cells were isolated from whole blood by the Ficoll-Hypaque centrifugation technique. Briefly, diluted anti-coagulated blood is layered over Ficoll-Hypaque and centrifuged. Mononuclear cells consisting of lymphocytes and some monocytes are recovered at the interface. The cells were washed with the Flanks' balanced salt solution (HBSS) buffer, re-suspended in the HBSS buffer, and treated with different concentration of 4CmC at 37° C. in the presence and/or absence of inhibitor of adenosine deaminase erythro-9-(2-hydroxy-3-nonyl)adenine (EHNA) for about 30 minutes. The cells were then purified by adding an equal volume of 6% HClO4 and centrifuged at 6000 rpm for 10 minutes. Aliquots of the supernatant were analyzed for adenosine and inosine content with HPLC using a Waters Separation Module (Model 2695) equipped with Waters Photodiode Array Detector and Empower software.

Cc1cc(O)ccc1Cl [4CmC, 4-chloro-m-cresol]
4CmC response (adenosine plus inosine) in MHS group relative to MHN or normal groups (1 mM 4CmC): about 4 fold
4CmC response (adenosine plus inosine) in MHS group relative to MHN or normal groups (2 mM 4CmC): about 4 fold
stimulation of adenosine plus inosine formation in control and MHN samples (5 mM 4CmC (maximum effective dose)): did not, or minimally stimulated
stimulation of nucleosides formation by 4CmC in MHS samples (5 mM 4CmC, FIG. 3): ~6 fold
adenosine plus inosine level after 4CmC treatment, mean±SEM (5 mM 4CmC, MHN group (n=9)): 5.4 ± 0.6 µM
adenosine plus inosine level after 4CmC treatment, mean±SEM (5 mM 4CmC, MHS group (n=11)): 35.6 ± 3.1 µM
adenosine plus inosine level after 4CmC treatment, mean±SEM (5 mM 4CmC, normal group (n=7)): 5.6 ± 1 µM
[Adenosine] μM Post 5 mM 4CmC (lymphocytes of single normal subjects, 5 mM 4CmC): 0.220 µM and 0.144 µM and 0.246 µM and 0.154 µM and 0.276 µM and 0.177 µM and 0.268 µM
4CmC concentration at which inosine release reaches saturation (without EHNA): about 5 mM
4CmC concentrations that stimulate inosine release dose-dependently (without EHNA): above 1 mM
effect of 4CmC on adenosine formation (without adenosine deaminase inhibitor): not affected
